Columns and labels:
[1] = Muscle temperature in sheep during α-MSH infusion; format: in vivo
Protocol: Four ovariectomised ewes were placed on a diet of temporal food restriction where food was made available between 11:00-16:00 h (as depicted by the grey box in FIGS. 4A and 4B). Animals were exposed to this feeding window for at least 2 weeks prior to experimentation. Then, one week before the onset of experiments, an indwelling cannulae was surgically inserted into the external jugular vein (experiment a) or femoral artery (experiment b). At the same time, a datalogger was implanted into the vastus lateralis muscle of the hindlimb and programmed to read temperature at 15 min intervals. Animals were treated with either α-MSH 100 μg/h (▾ triangles) for experiment a or 1 μg/h for experiment b or saline (800 μl/h, […]). Infusions were carried out between 10:00-19:00 h.

[2] = Glucose disposal during ipGTT with systemic α-MSH infusion; format: in vivo, mice; conditions: for glucose disposal during ipGTT: systemic infusion (external jugular vein) 1 μg/h
Protocol: Mice were instrumented with an arterial catheter (carotid artery) to monitor blood pressure (BP), heart rate (HR) and for sampling. At the same time, a venous catheter (jugular vein) was placed to infuse α-MSH (1 μg/h) for 3 h. Blood glucose was measured before and at 10 and 20 mins of α-MSH infusion. After that, mice received an ip glucose injection (GTT, 1 mg/g). Blood glucose levels were measured at 15, 30, 60 and 120 mins after glucose challenge. BP and […] were recorded during whole procedure. The results are shown in FIGS. 5A and 5B. **[…] vs saline infusion. In a further experiment, MC4R activity was blocked using agouti-related peptide (AgRP; 1.0 nmol, 1 μl) administered (by injection to the lateral ventricle) 1 hr before commencement of the α-MSH infusion.

soleus muscles = assay: Glucose uptake in isolated soleus muscles (2-deoxy-D-[3H]glucose); format: cell-based, mice; conditions: 100 nM, presence and absence of 10 nM insulin
Protocol: Mice were fasted overnight and soleus muscles were dissected from anaesthetised mice. Muscles were preincubated for 30 min with 1 ml of warmed (30° C.), pregassed (95% O2-5% CO2, pH 7.4), modified Krebs-Henseleit buffer supplemented with 2 mmol/l sodium pyruvate, 8 mmol/l mannitol, and 0.1% wt/vol BSA and were then incubated with or without 10 nM insulin, α-MSH (100 nM) or α-MSH plus insulin (100 nM+10 nM) for 20 min. Glucose uptake was assessed for 10 min using 2-deoxy-D-[2,6-^3H]glucose (1 mmol/1, 0.5 μCi/ml) in the presence or absence of 10 nM insulin. Radioactivity was measured in muscle lysates by liquid scintillation counting.

p-AMPK [3] = assay: p-AMPK levels in soleus muscles treated in vitro (Western blot); format: cell-based; conditions: lean mice; 1, 10 and 100 nM for 45 min in vitro; FIG. 8
Protocol: Soleus muscles were dissected from anaesthetised mice. Muscles were incubated with α-MSH (at 1, 10, and 100 nM) for 45 min. After that, muscles were immediately homogenised in cold RIPA lysis buffer. Homogenates were centrifugated and supernatant were collected to measure protein contents ([…]). 50 μg of each sample was loaded on a 10% Tris-Glycine pre-cast gel. A liver protein sample was run as a positive control. The gel was then transferred onto an Immobilon PVDF membrane for 2 h and after blocking for 1 h with 5% milk in TBST, was incubated o/n with anti-p-AMPK antibody (1:1000; Cell Signaling Technology, Inc, Danvers, Mass., United States of America), anti-total AMPK (1:1000, Cell Signaling Technology, Inc), or anti-GAPDH antibody (1:20000). To avoid interferences with total AMPK antibody, membranes were stripped before incubating with this antibody. Goat anti-mouse IgG horseradish peroxidase (1:50000, Santa Cruz Biotechnology, Inc, Santa Cruz, Calif., United States of America) was used as secondary antibody.

cAMP = cAMP levels in muscles after α-MSH infusion (immunoassay); format: in vivo; conditions: control mice; 45 minutes of α-MSH infusion; FIG. 9A
Protocol: To measure cAMP concentrations and to determine p-AMPK protein expression in muscles, an experiment was conducted according to a similar design to that described in FIG. 5. Muscle tissues were obtained after 45 minutes of initiating α-MSH infusion and 25 minutes of administering glucose injection. cAMP concentration was determined with a direct immunoassay kit (BioVision Research Products, Mountain View, Calif., United States of America). The kit has a cAMP polyclonal antibody onto the plate. cAMP-HRP conjugates directly compete with cAMP from sample binding to the cAMP antibody on the plate. The HRP activity at 450 nm is inversely proportional to the cAMP concentration in samples. White bars: saline infusion, dark bars: α-MSH infusion

p-AMPK [4] = assay: p-AMPK protein expression in muscles after α-MSH infusion (Western blot); format: in vivo; conditions: control mice, FIG. 9B
Protocol: To measure cAMP concentrations and to determine p-AMPK protein expression in muscles, an experiment was conducted according to a similar design to that described in FIG. 5. Muscle tissues were obtained after 45 minutes of initiating α-MSH infusion and 25 minutes of administering glucose injection. cAMP concentration was determined with a direct immunoassay kit (BioVision Research Products, Mountain View, Calif., United States of America). The kit has a cAMP polyclonal antibody onto the plate. cAMP-HRP conjugates directly compete with cAMP from sample binding to the cAMP antibody on the plate. The HRP activity at 450 nm is inversely proportional to the cAMP concentration in samples. White bars: saline infusion, dark bars: α-MSH infusion p-AMPK and total AMPK were determined by Western blot. Results shown in FIG. 9B are expressed as a ratio P/Total AMPK. *P<0.05

[5] = test system: Rat L6 skeletal muscle cells; assay: Glucose uptake in differentiated L6 cells; format: cell-based; conditions: 100 nM α-MSH and/or 10 nM insulin; FIG. 10
Protocol: Rat L6 skeletal muscle cells were seeded in 12-well plates and differentiated in myotubes by replacing growth medium (DMEM+10% FBS) with DMEM+2% horse serum. Medium was changed every day for 1 week. Cells were preincubated for 20 min with no glucose medium+0.1% fatty acid-free BSA. 10 nM of insulin and/or 100 nM α-MSH was added to the corresponding wells. Glucose uptake was assessed for 15 min using 2-deoxy-D-[2,6-^3H]glucose (1 mmol/1, 0.5 μCi/ml) in the presence or absence of 10 nM insulin and 100 nM of α-MSH. Radioactivity was measured in cell lysates by liquid scintillation counting.

skeletal muscle cells = assay: Glucose uptake in skeletal muscle cells with MC5R agonist; format: cell-based
adult monkey pituitaries = assay: α-MSH release from halved pituitaries; format: cell-based; conditions: glucose 15 mM, insulin 200 nM, 45 min; FIG. 1A
Protocol: Adult monkey pituitaries (n=22) were halved and then treated separately with artificial cerebrospinal fluid (aCSF) equilibrated with 95% O2 and 5% CO2 and incubated at 37° C. After 1 hr equilibration period, halves were incubated for 45 min in aCSF (basal period) before being challenged with glucose (Glu): 15 mM, insulin (Ins): 200 nM or Glu+Ins (15 mM+200 nM) treatments for 45 min. […] This was confirmed by measurement of α-MSH in monkey pituitaries by radioimmunoassay after acidic extraction (FIG. 1B).

[6] = α-MSH levels after ip insulin injection; format: in vivo; conditions: POMC-Kir6.2 mutant mice and control littermates; human insulin 1.0 U/kg ip; FIG. 3B
Text: POMC-mutKIR6.2 mice is a mutant in which all POMC cells lack the capacity to sense glucose due to dysfunctional ATP/K+ channels. Mutants and wild-type littermates were fed a regular diet. Blood glucose and α-MSH samples were taken after ip injection of human insulin (1.0 U/kg). The results are shown in FIG. 3A. **P<0.01 vs baseline value in the respective group by repeated-measures ANOVA. # P<0.01 vs control littermate at the respective point by single measured.

hMC5R = hMC5R (Homo sapiens, UniProt P33032); conditions: cited from earlier work
Chain of hMC5R (P33032 whole entry): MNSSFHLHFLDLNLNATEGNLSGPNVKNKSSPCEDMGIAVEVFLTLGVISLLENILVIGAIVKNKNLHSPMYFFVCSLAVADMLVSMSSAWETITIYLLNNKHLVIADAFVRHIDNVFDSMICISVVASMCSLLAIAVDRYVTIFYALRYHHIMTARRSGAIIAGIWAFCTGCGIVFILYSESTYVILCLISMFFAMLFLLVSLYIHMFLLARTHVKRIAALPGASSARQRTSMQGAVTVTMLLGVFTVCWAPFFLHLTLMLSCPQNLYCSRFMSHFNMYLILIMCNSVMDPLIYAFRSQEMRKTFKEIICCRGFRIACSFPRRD

α-melanocyte stimulating hormone (SYSMEHFRWGKPV) [α-MSH, native peptide; native agonist for the type 1, 3, 4 and 5 melanocortin receptors]
muscle temperature ([1]; direct infusion into femoral artery, 1 μg/h, FIG. 4B): causes an increase in muscle temperature
post-prandial muscle temperature ([1]; systemic infusion (external jugular vein), 100 μg/h, FIG. 4A): increases post-prandial muscle temperature
response to α-MSH infusion ([2]; MC4R KO mice, data not shown): intact response
glucose disposal during ipGTT ([2]; control mice, FIG. 5A): increases glucose disposal
glucose disposal during ipGTT ([2]; obese (DIO) mice, FIG. 5B): does not increase glucose disposal
glucose uptake in soleus muscles (soleus muscles; control mice, FIG. 6A): increases glucose uptake
glucose uptake in soleus muscles (soleus muscles; obese mice, FIG. 6B): does not increase glucose uptake
p-AMPK muscle levels (p-AMPK [3]): dose-dependent increase of p-AMPK muscle levels
cAMP levels in muscles (cAMP): increase of cAMP levels
p-AMPK protein expression in muscles (ratio P/Total AMPK) (p-AMPK [4]): increased
glucose uptake by rat L6 cells [5]: increases in glucose uptake

Ac-Nle-c[Asp-Pro-D-Nal(2′)-Arg-Trp-Lys]-NH2 (XDPXRWK; Ac, amide, cyclic lactam, Nle, D-Nal(2'); PG-901)
increases of glucose uptake in skeletal muscle cells (skeletal muscle cells; 1 nM and 5 nM amounts, FIG. 5D): 30-40%
effect of an MC3R and MC4R antagonist on the increase of glucose uptake (skeletal muscle cells; 1 nM and 5 nM amounts, data not shown): unaffected by the presence of an MC3R and MC4R antagonist
glucose uptake in muscle cells (skeletal muscle cells; FIG. 5D): increases glucose uptake in muscle cells

insulin
glucose uptake by rat L6 cells [5]: increases in glucose uptake
α-MSH release from pituitaries (adult monkey pituitaries): stimulate α-MSH release
α-MSH levels in response to insulin [6]: do not change

Ac-Nle-c[Asp-Hyp-D-Nal(2′)-Arg-Trp-Lys]-NH2 [PG-911]
EC50 (hMC5R): 0.031 nM

agouti-related peptide (SSRRCVRLHESCLGQQVPCCDPCATCYCRFFNAFCYCRKLGTAMNPCSRT; UniProt O00253 83-132, looked up) [AgRP, reference compound]
effect on the response (increased glucose disposal) to α-MSH infusion ([2]; AgRP 1.0 nmol to lateral ventricle 1 hr before α-MSH infusion, to block MC4R, FIG. 5C): does not prevent the response
